Reference: patent US9989531B2, “Composition comprising a cell sample from a subject with scoliosis and a reagent for detecting PTPμ or PIPK1y” (Chu Sainte-Justine, priority 2013, dated 2018)

What was measured:
GiPCR signaling = assay: Exogenous recombinant OPN treatment of osteoblasts prior to GiPCR stimulation (CDS); assay type: cell-based, mouse; conditions: WT and PTPμ−/− osteoblasts, varying concentrations of rOPN (FIGS. 4 A-C)
Method: (§1) The signaling capacity of G proteins was assessed from osteoblast cultures using cellular dielectric spectroscopy (CDS) performed on a CellKey™ apparatus (MDS Sciex, San Francisco, Calif.), as described in Akoume, et al., 2010 and WO 2010/040234, 2010 to Moreau et al. To assess GiPCR cell signaling, specific agonists that bind to GiPCR and regulate Gi proteins were used: Apelin-17, Oxymethazolin and Somatostatin (Som) (Tocris Bioscience, Canada).
WT and PTPμ^−/− osteoblasts were treated with varying concentrations of exogenous recombinant OPN (rOPN) prior to GiPCR stimulation with agonists identified in FIGS. 4 A-C.

G αi proteins = assay: Pertussis toxin pre-treatment of osteoblasts before GiPCR agonist stimulation (CDS); assay type: cell-based, mouse; conditions: osteoblasts from bipedal WT and PTPμ−/− mice; agonists oxymethazolin, somatostatin, apelin-17 (FIG. 2)
From the text: Furthermore, Pertussis toxin (PTX) (Sigma Aldrich, Canada) was used to determine if the effect of the agonists was related to G αi proteins.

Apelin receptor (APJR) = target: T1, Apelin receptor (APJR) (Mus musculus, UniProt Q9WV08); assay: GiPCR signaling by cellular dielectric spectroscopy (CDS), apelin-17 stimulation of osteoblasts; assay type: cell-based; conditions: osteoblasts from bipedal WT and PTPμ−/− mice, different concentrations (FIG. 3)
T1 construct: The signaling capacity of G proteins was assessed from osteoblast cultures using cellular dielectric spectroscopy (CDS); endogenous in cells; host or cells: primary spine osteoblasts from bipedal C57Bl/6j WT and PTPμ-/- mice
T1 sequence (Q9WV08 1-377): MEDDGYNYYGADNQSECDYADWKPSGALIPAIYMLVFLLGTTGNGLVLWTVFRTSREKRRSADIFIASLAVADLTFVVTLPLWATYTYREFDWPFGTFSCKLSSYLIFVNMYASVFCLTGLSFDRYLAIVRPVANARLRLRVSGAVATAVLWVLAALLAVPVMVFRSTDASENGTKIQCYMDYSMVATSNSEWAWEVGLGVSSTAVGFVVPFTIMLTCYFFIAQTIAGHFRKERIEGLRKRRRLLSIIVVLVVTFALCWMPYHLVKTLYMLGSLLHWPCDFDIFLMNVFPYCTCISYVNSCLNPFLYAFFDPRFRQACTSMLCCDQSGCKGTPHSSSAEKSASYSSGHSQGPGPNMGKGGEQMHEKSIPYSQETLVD

[1] = tested on: α2 adrenergic receptor (α2-ADR); assay: GiPCR signaling by cellular dielectric spectroscopy (CDS), oxymethazolin stimulation of osteoblasts; assay type: cell-based, mouse; conditions: osteoblasts from bipedal WT and PTPμ−/− mice, different concentrations (FIG. 3)
Method: as §1
To examine the impact of PTPμ deficiency on this defect, osteoblasts from bipedal WT and PTPμ^−/− mice were screened for their response to three GiPCR selective agonists identified in (FIG. 2). In agreement with previous results (Akoume et al Spine 2010), all three compounds evoked typical CDS response profiles of GiPCR in WT osteoblasts. Consistent with Gi coupling for their cognate receptors in these cells, response to each of the three tested compounds was blocked by pre-treatment with PTX (FIGS. 2 A-F). Similar results were obtained with PTPμ^−/− osteoblasts (FIGS. 2 G-L). […] However, in each case, osteoblasts from PTPμ^−/− mice were less responsive than those from WT mice, but EC50 values were similar in both groups (FIGS. 3 A-C).

OPN = target: T2, OPN (Mus musculus, UniProt P10923); assay: OPN knockdown by siRNA in osteoblasts, response to GiPCR stimulation (CDS); assay type: cell-based; conditions: WT and PTPμ−/− osteoblasts (FIGS. 3 F-H)
T2 construct: endogenous in cells; host or cells: primary spine osteoblasts from bipedal C57Bl/6j WT and PTPμ-/- mice, transfected with OPN siRNA
Method: as §1
(§2) Primary osteoblast cell cultures from C57BI/6j WT and C57B/6j PTPμ^−/− were cultured (as described above). Lipofectamine™ RNAiMAX (Invitrogen) was applied for siRNA transfection according to the manufacturer's instructions. The sequence of RNA oligo used for the knockdown of OPN is ([…] (SEQ ID NO: 25)). The cells were harvested for RNA extraction after 48 hrs. The same procedure was followed for phosphatidylinositol-phosphate kinase type I gamma (PIPK1γ). The sequence of RNA oligo used for the knockdown of PIPK1γ is ([…] (SEQ ID NO: 26)).
To relate these findings to the OPN action, the small interference RNA (siRNA) approach was used to knockdown the expression of OPN in WT and PTPμ^−/− osteoblasts.

PIPK1γ = target: T3, PIPK1γ (Mus musculus, UniProt O70161); assay: PIPK1γ knockdown by siRNA in osteoblasts, response to somatostatin stimulation (CDS); assay type: cell-based; conditions: varying concentrations of somatostatin, vs scrb (FIG. 6H)
T3 construct: endogenous in cells; host or cells: primary spine osteoblasts from bipedal C57Bl/6j WT and PTPμ-/- mice
Method: as §1, §2
To further assess the implication of PIPK1γ in the mechanism of action behind PTPμ deficiency, a SiRNA approach was used to knockdown the expression of PIPK1γ in WT and PTPμ^−/− osteoblasts prior to initiating GiPCR signaling with somatostatin stimulation. Efficiency of siRNA in WT and PTPμ^−/− osteoblasts was confirmed by qPCR and Western blot analysis (FIGS. 6 B and C). […]

T3 sequence (O70161 whole entry): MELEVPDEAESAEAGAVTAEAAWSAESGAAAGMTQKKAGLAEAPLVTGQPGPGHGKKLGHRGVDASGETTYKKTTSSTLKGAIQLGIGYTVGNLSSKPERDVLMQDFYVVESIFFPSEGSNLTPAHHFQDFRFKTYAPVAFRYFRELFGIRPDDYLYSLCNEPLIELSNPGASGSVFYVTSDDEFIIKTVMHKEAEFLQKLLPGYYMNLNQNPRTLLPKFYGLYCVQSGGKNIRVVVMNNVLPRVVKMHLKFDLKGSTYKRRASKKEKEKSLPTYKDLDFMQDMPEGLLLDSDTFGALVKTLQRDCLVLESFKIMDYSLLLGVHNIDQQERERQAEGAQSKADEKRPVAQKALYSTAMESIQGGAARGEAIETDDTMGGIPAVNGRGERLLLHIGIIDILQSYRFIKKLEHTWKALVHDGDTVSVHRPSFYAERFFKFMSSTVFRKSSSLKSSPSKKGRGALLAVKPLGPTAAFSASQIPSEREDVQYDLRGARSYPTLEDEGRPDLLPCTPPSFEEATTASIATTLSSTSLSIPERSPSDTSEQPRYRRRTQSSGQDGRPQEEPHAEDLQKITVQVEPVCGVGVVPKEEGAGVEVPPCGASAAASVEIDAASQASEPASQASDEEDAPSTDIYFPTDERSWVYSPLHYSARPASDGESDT
T2 sequence (P10923 17-294): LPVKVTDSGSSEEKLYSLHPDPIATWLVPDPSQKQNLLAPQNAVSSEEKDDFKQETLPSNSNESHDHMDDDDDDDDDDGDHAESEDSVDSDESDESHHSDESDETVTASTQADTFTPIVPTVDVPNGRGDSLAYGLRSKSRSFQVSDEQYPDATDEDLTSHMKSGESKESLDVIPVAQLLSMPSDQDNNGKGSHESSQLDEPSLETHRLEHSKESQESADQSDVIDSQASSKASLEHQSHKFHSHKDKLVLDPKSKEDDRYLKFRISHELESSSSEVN

## rOPN: exogenous recombinant OPN (osteopontin)
GiPCR signaling
  integrated response to GiPCR stimulation: decrease in the integrated response in a concentration-dependent manner

## Pertussis toxin [PTX]
G αi proteins
  effect of pre-treatment on Gi coupling of agonists to their cognate receptors: blocked the Gi coupling

## Apelin-17
Apelin receptor (APJR)
  CDS response to agonist: increased response in a concentration-dependent manner

## Cc1cc(C(C)(C)C)c(O)c(C)c1CC1=NCCN1 [oxymethazoin, Oxymethazolin]
[1]
  CDS response to agonist: increased response in a concentration-dependent manner

## OPN siRNA: RNA oligo used for the knockdown of OPN: CCACAGCCACAAGCAGUCCAGAUUA (SEQ ID NO: 25) (CCACAGCCACAAGCAGUCCAGAUUA; listed as RNA, chemistry not given here)
OPN
  response to GiPCR stimulation after deletion of OPN: enhanced response to GiPCR stimulation

## siPIPK1: RNA oligo used for the knockdown of PIPK1γ: CCUCCACAUCGGGAUUGAUAUU (SEQ ID NO: 26) (CCUCCACAUCGGGAUUGAUAUU; listed as RNA, chemistry not given here)
PIPK1γ; WT osteoblasts
  response to somatostatin stimulation after depletion of PIPK1γ: same response
PIPK1γ; osteoblasts from PTPμ deficiency mice
  response to somatostatin stimulation after depletion of PIPK1γ: enhanced response to somatostatin stimulation
